Values quoted from earlier work, collected in patent publication EP4599698A1, “PRODUCTS COMPRISING SENSORY AGENTS” (Nicoventures Trading Limited, priority 2024, dated 2025).

Key:
TRP ankyrin 1/TRPA1 = TRP ankyrin 1/TRPA1 (Homo sapiens, UniProt O75762)
[1] = biological target: transient receptor potential vanilloid 1/TRPV1 (Homo sapiens, UniProt Q8NER1)
TRP melastatin 8/TRPM8 = TRP melastatin 8/TRPM8 (Homo sapiens, UniProt Q7Z2W7)
[2] = when isolated; converts via isomerization into trans-bixin (β-bixin)

Chain of TRP ankyrin 1/TRPA1 (O75762 whole entry): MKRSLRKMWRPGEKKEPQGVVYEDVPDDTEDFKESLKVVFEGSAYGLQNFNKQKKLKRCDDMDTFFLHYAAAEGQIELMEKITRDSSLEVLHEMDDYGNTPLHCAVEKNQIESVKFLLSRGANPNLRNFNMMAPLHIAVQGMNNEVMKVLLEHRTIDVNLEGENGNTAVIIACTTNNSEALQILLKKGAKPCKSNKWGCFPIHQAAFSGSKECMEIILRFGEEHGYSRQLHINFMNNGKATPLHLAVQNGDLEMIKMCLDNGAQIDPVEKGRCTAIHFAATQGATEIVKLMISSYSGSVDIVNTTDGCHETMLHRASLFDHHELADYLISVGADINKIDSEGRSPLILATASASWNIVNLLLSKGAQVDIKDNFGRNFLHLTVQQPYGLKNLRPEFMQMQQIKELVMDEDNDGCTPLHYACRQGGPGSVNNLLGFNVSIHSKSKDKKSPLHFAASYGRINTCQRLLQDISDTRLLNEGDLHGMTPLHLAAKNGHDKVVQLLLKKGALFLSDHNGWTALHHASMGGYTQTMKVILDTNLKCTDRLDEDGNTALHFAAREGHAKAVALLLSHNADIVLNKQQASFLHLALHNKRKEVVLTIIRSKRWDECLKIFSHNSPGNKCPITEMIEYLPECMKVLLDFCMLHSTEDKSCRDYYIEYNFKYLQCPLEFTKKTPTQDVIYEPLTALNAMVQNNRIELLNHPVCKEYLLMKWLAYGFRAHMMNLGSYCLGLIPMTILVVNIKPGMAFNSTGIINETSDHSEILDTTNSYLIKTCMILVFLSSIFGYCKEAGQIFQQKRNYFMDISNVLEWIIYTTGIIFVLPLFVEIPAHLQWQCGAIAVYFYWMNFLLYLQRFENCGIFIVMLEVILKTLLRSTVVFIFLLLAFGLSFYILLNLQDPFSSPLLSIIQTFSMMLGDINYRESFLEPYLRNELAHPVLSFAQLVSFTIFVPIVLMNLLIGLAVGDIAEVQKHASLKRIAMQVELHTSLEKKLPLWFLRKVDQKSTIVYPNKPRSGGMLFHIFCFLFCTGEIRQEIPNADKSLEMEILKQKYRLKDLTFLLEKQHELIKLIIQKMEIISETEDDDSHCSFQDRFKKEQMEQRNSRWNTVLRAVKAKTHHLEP
Chain of transient receptor potential vanilloid 1/TRPV1 (Q8NER1 whole entry): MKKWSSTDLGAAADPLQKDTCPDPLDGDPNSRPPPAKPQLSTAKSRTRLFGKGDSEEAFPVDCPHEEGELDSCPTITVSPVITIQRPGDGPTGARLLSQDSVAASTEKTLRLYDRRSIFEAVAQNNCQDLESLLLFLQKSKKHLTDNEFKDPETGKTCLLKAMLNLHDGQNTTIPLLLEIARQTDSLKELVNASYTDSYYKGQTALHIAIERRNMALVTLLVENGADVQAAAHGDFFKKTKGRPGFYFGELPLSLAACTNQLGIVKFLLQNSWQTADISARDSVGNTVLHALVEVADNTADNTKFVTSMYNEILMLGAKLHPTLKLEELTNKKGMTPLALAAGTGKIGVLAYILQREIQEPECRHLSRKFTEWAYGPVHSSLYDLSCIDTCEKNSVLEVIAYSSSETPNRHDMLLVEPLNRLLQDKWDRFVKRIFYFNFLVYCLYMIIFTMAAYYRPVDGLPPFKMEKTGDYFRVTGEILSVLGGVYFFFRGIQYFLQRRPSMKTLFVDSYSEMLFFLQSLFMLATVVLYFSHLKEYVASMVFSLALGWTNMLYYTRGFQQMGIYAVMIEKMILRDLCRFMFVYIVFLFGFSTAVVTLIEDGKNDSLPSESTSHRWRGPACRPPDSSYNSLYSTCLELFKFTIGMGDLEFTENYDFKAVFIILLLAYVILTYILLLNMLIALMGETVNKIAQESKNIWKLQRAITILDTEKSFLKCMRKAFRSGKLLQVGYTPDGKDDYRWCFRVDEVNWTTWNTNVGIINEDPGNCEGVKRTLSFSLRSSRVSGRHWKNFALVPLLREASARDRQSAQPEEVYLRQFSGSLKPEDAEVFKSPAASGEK
Chain of TRP melastatin 8/TRPM8 (Q7Z2W7 whole entry): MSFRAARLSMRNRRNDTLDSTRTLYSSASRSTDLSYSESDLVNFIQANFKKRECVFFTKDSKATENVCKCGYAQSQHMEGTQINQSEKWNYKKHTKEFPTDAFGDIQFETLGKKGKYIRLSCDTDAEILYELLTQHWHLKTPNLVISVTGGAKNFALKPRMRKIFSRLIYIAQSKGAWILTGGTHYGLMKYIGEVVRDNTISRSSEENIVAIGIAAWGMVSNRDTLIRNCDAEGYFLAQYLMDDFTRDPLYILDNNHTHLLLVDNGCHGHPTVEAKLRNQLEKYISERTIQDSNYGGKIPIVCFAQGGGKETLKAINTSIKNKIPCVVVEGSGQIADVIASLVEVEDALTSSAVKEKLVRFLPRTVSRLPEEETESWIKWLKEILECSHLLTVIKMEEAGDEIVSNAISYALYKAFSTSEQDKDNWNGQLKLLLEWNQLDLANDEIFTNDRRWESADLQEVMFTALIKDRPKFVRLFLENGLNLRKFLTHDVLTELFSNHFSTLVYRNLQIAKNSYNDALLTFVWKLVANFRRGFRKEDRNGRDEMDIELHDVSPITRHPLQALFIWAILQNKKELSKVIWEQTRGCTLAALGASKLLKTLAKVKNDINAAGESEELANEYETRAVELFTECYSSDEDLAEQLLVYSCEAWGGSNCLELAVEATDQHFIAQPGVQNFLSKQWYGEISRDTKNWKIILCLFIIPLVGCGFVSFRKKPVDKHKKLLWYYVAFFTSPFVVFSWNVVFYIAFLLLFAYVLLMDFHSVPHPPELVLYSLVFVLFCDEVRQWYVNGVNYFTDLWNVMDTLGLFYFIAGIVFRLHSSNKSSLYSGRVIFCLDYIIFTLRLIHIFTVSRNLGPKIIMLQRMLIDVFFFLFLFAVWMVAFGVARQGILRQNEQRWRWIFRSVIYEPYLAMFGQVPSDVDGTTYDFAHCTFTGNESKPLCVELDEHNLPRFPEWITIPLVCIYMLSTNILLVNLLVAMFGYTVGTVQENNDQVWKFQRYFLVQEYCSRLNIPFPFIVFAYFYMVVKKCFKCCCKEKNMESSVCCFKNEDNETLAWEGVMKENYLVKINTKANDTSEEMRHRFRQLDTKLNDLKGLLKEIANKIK

CC(/C=C/C=C(C)/C=C/C(=O)O)=C\C=C\C=C(C)\C=C\C=C(C)\C=C\C(=O)O (stereo in doubt) [norbixin, (2E,4E,6E,8E,10E,12E,14E,16E,18E)-4,8,13,17-tetramethylicosa-2,4,6,8,10,12,14,16,18-nonaenedioic acid]
solubility in water: water soluble

C/C=C/C=C/C=C\CC/C=C/C(=O)NCC(C)(C)O [Hydroxyl-α-sanshool]
agonist activity at TRPA1 (TRP ankyrin 1/TRPA1): agonist | agonist activity at TRPV1 [1]: agonist

C=CC(C)(O)CCC=C(C)C (stereo not shown) [Linalool]
agonist activity at TRPM8 (TRP melastatin 8/TRPM8): weak agonist | stimulation of TRPA1-containing neurons (TRPA1-containing neurons): shown to stimulate

COC(=O)/C=C/C(C)=C\C=C\C(C)=C\C=C\C=C(C)\C=C\C=C(C)\C=C\C(=O)O [bixin, (2E,4E,6E,8E,10E,12E,14E,16Z,18E)-20-methoxy-4,8,13,17-tetramethyl-20-oxoicosa-2,4,6,8,10,12,14,16,18-nonaenoic acid]
chemical stability [2]: chemically unstable when isolated | solubility in water: insoluble in water
